Laboratory results from ChEMBL document CHEMBL5608163, “Structure modification of anoplin for fighting resistant bacteria” (Eur J Med Chem, 2024).
Values after ≈ are worked out from the molar mass of the structure shown. Peptide text beside a SMILES is read from it.

Columns and labels:
Erythrocyte = test: Hemolytic activity in mouse Red blood cells incubated for 1 hr by microplate reader assay; assay type: toxicity, cell-based; conditions: erythrocyte, 1 h
Bacillus subtilis = test: Antibacterial activity against Bacillus subtilis ATCC 23857 assessed as reduction in bacterial growth incubated for 18 to 20 hrs by Mueller Hinton broth dilution method; assay type: functional; conditions: time 18-20 hrs
Staphylococcus aureus [1] = test: Antibacterial activity against Staphylococcus aureus ATCC 25923 assessed as reduction in bacterial growth incubated for 18 to 20 hrs by Mueller Hinton broth dilution method; assay type: functional; conditions: time 18-20 hrs
Pseudomonas aeruginosa = test: Antibacterial activity against Pseudomonas aeruginosa ATCC 27853 assessed as reduction in bacterial growth incubated for 18 to 20 hrs by Mueller Hinton broth dilution method; assay type: functional; conditions: time 18-20 hrs
Escherichia coli [2] = test: Antibacterial activity against Escherichia coli ATCC 25922 assessed as reduction in bacterial growth incubated for 18 to 20 hrs by Mueller Hinton broth dilution method; assay type: functional; conditions: time 18-20 hrs
Staphylococcus aureus [3] = test: Antibacterial activity against Staphylococcus aureus ATCC 25923 assessed as reduction in bacterial growth incubated for 18 to 24 hrs by broth microdilution method; assay type: functional; conditions: time 18-24 hrs
Escherichia coli [4] = test: Antibacterial activity against Escherichia coli ATCC 25922 assessed as reduction in bacterial growth by broth microdilution method; assay type: functional
[5] = Hemolytic activity in human RBC; assay type: toxicity, cell-based, Erythrocyte; conditions: red blood cells

Row | SMILES | MIC (Staphylococcus aureus [3]) [µM] | MIC (Escherichia coli [4]) [µM] | further results
1 | CC[C@H](C)[C@H](NC(=O)[C@H](CCCNC(=N)N)NC(=O)[C@@H](CCCCN)NC(=O)[C@H](CC(C)C)NC(=O)[C@H](CC(C)C)NC(=O)CN)C(=O)N[C@@H](CCCCN)C(=O)N[C@@H](C(=O)N[C@@H](CC(C)C)C(=O)N[C@@H](CC(C)C)C(N)=O)[C@H](C)O |  |  | HC10 (Erythrocyte): > 300 µM
2 | CC(C)C[C@@H](NC(=O)[C@@H](CC(C)C)NC(=O)[C@@H](CCCCN)NC(=O)[C@@H](CCCCN)NC(=O)[C@@H](Cc1c[nH]c2ccccc12)NC(=O)[C@@H](CCCNC(=N)N)NC(=O)[C@@H](CCCCN)NC(=O)[C@@H](CC(C)C)NC(=O)[C@@H](CC(C)C)NC(=O)[C@H](N)Cc1c[nH]c2ccccc12)C(N)=O |  |  | HC10 (Erythrocyte): > 200 µM; MIC (Bacillus subtilis): 4 µM (≈ 5.53 µg/mL); MIC (Staphylococcus aureus [1]): 16 µM (≈ 22.1 µg/mL); MIC (Pseudomonas aeruginosa): 8 µM (≈ 11.1 µg/mL); MIC (Escherichia coli [2]): 8 µM (≈ 11.1 µg/mL)
3 | CC[C@H](C)[C@H](NC(=O)[C@H](CCCNC(=N)N)NC(=O)[C@H](CCCCN)NC(=O)[C@H](CC(C)C)NC(=O)[C@H](CC(C)C)NC(=O)[C@H](C)N)C(=O)N[C@@H](CCCCN)C(=O)N[C@H](C(=O)N[C@@H](CC(C)C)C(=O)N[C@@H](CC(C)C)C(N)=O)[C@@H](C)O (H-ALLKRIKTLL-NH2) | > 18 | > 18 | 
4 | CC[C@H](C)[C@H](NC(=O)[C@H](CCCNC(=N)N)NC(=O)[C@H](C)NC(=O)[C@H](CC(C)C)NC(=O)[C@H](CC(C)C)NC(=O)CN)C(=O)N[C@@H](CCCCN)C(=O)N[C@H](C(=O)N[C@@H](CC(C)C)C(=O)N[C@@H](CC(C)C)C(N)=O)[C@@H](C)O (H-GLLARIKTLL-NH2) | 25.6 (≈ 28.1 µg/mL) | 14.6 (≈ 16 µg/mL) | 
5 | CC[C@H](C)[C@H](NC(=O)[C@H](C)NC(=O)[C@H](CCCCN)NC(=O)[C@H](CC(C)C)NC(=O)[C@H](CC(C)C)NC(=O)CN)C(=O)N[C@@H](CCCCN)C(=O)N[C@H](C(=O)N[C@@H](CC(C)C)C(=O)N[C@@H](CC(C)C)C(N)=O)[C@@H](C)O (H-GLLKAIKTLL-NH2) | 9.4 (≈ 10 µg/mL) | 4.7 (≈ 5.02 µg/mL) | HC50 [5]: 151 µM

The next lines start with results.

Row | MIC (Staphylococcus aureus [3]) [µM] | MIC (Escherichia coli [4]) [µM] | SMILES | further results
6 | > 38.7 | > 38.7 | CC[C@H](C)[C@H](NC(=O)[C@H](CCCNC(=N)N)NC(=O)[C@H](CCCCN)NC(=O)[C@H](CC(C)C)NC(=O)[C@H](C)NC(=O)CN)C(=O)N[C@@H](CCCCN)C(=O)N[C@H](C(=O)N[C@@H](CC(C)C)C(=O)N[C@@H](CC(C)C)C(N)=O)[C@@H](C)O (H-GALKRIKTLL-NH2) | 
7 | > 34.2 | > 34.2 | CC[C@H](C)[C@H](NC(=O)[C@H](CCCNC(=N)N)NC(=O)[C@H](CCCCN)NC(=O)[C@H](C)NC(=O)[C@H](CC(C)C)NC(=O)CN)C(=O)N[C@@H](CCCCN)C(=O)N[C@H](C(=O)N[C@@H](CC(C)C)C(=O)N[C@@H](CC(C)C)C(N)=O)[C@@H](C)O (H-GLAKRIKTLL-NH2) | 
8 | > 36.9 | > 36.9 | CC(C)C[C@H](NC(=O)[C@H](CC(C)C)NC(=O)[C@@H](NC(=O)[C@H](CCCCN)NC(=O)[C@H](C)NC(=O)[C@H](CCCNC(=N)N)NC(=O)[C@H](CCCCN)NC(=O)[C@H](CC(C)C)NC(=O)[C@H](CC(C)C)NC(=O)CN)[C@@H](C)O)C(N)=O (H-GLLKRAKTLL-NH2) | 
9 | 10.1 (≈ 11.1 µg/mL) | 10.1 (≈ 11.1 µg/mL) | CC[C@H](C)[C@H](NC(=O)[C@H](CCCNC(=N)N)NC(=O)[C@H](CCCCN)NC(=O)[C@H](CC(C)C)NC(=O)[C@H](CC(C)C)NC(=O)CN)C(=O)N[C@@H](C)C(=O)N[C@H](C(=O)N[C@@H](CC(C)C)C(=O)N[C@@H](CC(C)C)C(N)=O)[C@@H](C)O (H-GLLKRIATLL-NH2) | HC50 [5]: 121 µM
10 | 27.9 (≈ 31 µg/mL) | 44.1 (≈ 49 µg/mL) | CC[C@H](C)[C@H](NC(=O)[C@H](CCCNC(=N)N)NC(=O)[C@H](CCCCN)NC(=O)[C@H](CC(C)C)NC(=O)[C@H](CC(C)C)NC(=O)CN)C(=O)N[C@@H](CCCCN)C(=O)N[C@H](C(=O)N[C@@H](C)C(=O)N[C@@H](CC(C)C)C(N)=O)[C@@H](C)O (H-GLLKRIKTAL-NH2) | 
